We go through three compounds from patent US11820763B2, “Bromophenol-pyrazoline compound and synthesis method and use thereof” (Lead High Technology (QingDao) Co., Ltd, priority 2020, dated 2023).

For this assay, the system named is COVID-19 virus. As to the kind of experiment: Inhibition of COVID-19 virus replication in Vero E6 cells (vRNA in supernatant by qRT-PCR). It counts as cell-based, COVID-19 virus (clinical isolates) in Vero E6 cells. The conditions noted are these: for antiviral effect (viral RNA replication): Vero cells infected with COVID-19 virus, MOI 0.05, compound at concentrations of 30 μM and 10 μM, FIG. 2. As to the method:
In order to further confirm the results of enzyme inhibition in vitro, whether the bromophenol-pyrazoline compounds can prevent COVID-19 virus replication in Vero E6 cells infected with clinical isolates of COVID-19 virus was evaluated in the present invention.
Specific operations: The pre-seeded Vero E6 cells (5×10^4 cells/well) were pre-treated for 1 hr with various concentrations of bromophenol-pyrazoline compounds to be tested, and then infected for 2 hrs by adding COVID-19 virus (with an MOI of 0.05). Then, the mixture of the virus and compound was removed, and the cells were further incubated in a fresh medium containing the bromophenol-pyrazoline compound. After 24 hrs, the cell supernatant was collected, and the vRNA in the supernatant was analyzed by qRT-PCR.
On the technique in general: Real-time PCR tracks product formation cycle by cycle.

As to `CCOc1ccc(Oc2ccc(C3=NNC(c4cc(O)c(O)c(Br)c4Br)C3)cc2)cc1` (stereo not shown) [Compound 6a, 3,4-dibromo-5-(3-(4-(4-ethoxyphenoxy)phenyl)-4,5-dihydro-1H-pyrazol-5-yl)-1,2-dihydroxybenzene], the “antiviral effect (viral RNA replication)” value is given as “strong antiviral effects”. In addition, where the note is “Severe acute respiratory syndrome coronavirus 2, Vero C1008, read-out: EC50, inhibition of virus replication”, the EC50 was 4.45 µM.
Take `CCOc1ccc(Oc2ccc(C3=NN(C=O)C(c4cc(O)c(O)c(Br)c4Br)C3)cc2)cc1` (stereo not shown) [Compound 6b, 5-(2,3-dibromo-4,5-dihydroxyphenyl)-3-(4-(4-ethoxyphenoxy)phenyl)-4,5-dihydro-1H-pyrazol-1-carboxaldehyde]: the “antiviral effect (viral RNA replication)” value is on record as “strong antiviral effects”.
Same read-out and setting: the value for `CCOc1ccc(Oc2ccc(C3=NN(C(C)=O)C(c4cc(O)c(O)c(Br)c4Br)C3)cc2)cc1` (stereo not shown) [Compound 6c, 5-(2,3-dibromo-4,5-dihydroxyphenyl)-3-(4-(4-ethoxyphenoxy)phenyl)-4,5-dihydro-1H-1-acetyl pyrazole] was “strong antiviral effects”.

What is called EC50 is the midpoint of the concentration-response curve.
